Here are results for 23 compounds from PubChem BioAssay AID330 (DTP/NCI, 2004).

In the assay the test system is P388 leukemia ip, CD2F1 mice, survival T/C. The assay can be described thus: NCI In Vivo Anticancer Drug Screen. Data for tumor model P388 Leukemia (intraperitoneal) in CD2F1 (CDF1) mice. Conditions: endpoint: median survival time, higher = longer survival. The gist of the method:
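Mice carrying the transplanted tumor received test compound or vehicle. Survival was recorded in each group, and the value is the treated-group measurement divided by that of the vehicle-treated control group.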

Where [1] appears, read: dose: 25.0 mg/kg/injection, schedule: Q01DX005 (ip), vehicle: Klucel (hydroxypropylcellulose) (HPC).
Where [2] appears, read: dose: 50.0 mg/kg/injection, schedule: Q01DX005 (ip), vehicle: Klucel (hydroxypropylcellulose) (HPC).
The mark [3] stands for this setting: dose: 100.0 mg/kg/injection, schedule: Q01DX005 (ip), vehicle: Klucel (hydroxypropylcellulose) (HPC).
The mark [4] stands for this setting: dose: 100.0 mg/kg/injection, schedule: Q04DX003 (ip), vehicle: saline.
Where [5] appears, read: dose: 200.0 mg/kg/injection, schedule: Q04DX003 (ip), vehicle: saline.
[6] abbreviates: dose: 400.0 mg/kg/injection, schedule: Q04DX003 (ip), vehicle: saline.
Setting [7] is: dose: 50.0 mg/kg/injection, schedule: Q01DX005 (ip), vehicle: saline.
[8] abbreviates: dose: 100.0 mg/kg/injection, schedule: Q01DX005 (ip), vehicle: saline.
[9] abbreviates: dose: 200.0 mg/kg/injection, schedule: Q01DX005 (ip), vehicle: saline.
[10] abbreviates: dose: 50.0 mg/kg/injection, schedule: Q01DX005 (ip), vehicle: saline with Tween-80.
[11] abbreviates: dose: 100.0 mg/kg/injection, schedule: Q01DX005 (ip), vehicle: saline with Tween-80.
Setting [12] is: dose: 200.0 mg/kg/injection, schedule: Q01DX005 (ip), vehicle: saline with Tween-80.
Where [13] appears, read: dose: 60.0 mg/kg/injection, schedule: Q01DX005 (ip), vehicle: saline with Tween-80.
Where [14] appears, read: dose: 120.0 mg/kg/injection, schedule: Q01DX005 (ip), vehicle: saline with Tween-80.

Where “and” joins values, the source holds several entries; their conditions need not be identical. Equal entries are not always repeated. Toxic doses and inconclusive results are not listed.

With `C/C(=N\N=C(N)N)c1ccc2c(c1)Cc1cc(/C(C)=N/N=C(N)N)ccc1-2`, the T/C (dose: 3.12 mg/kg/injection, schedule: Q04DX002 (ip), vehicle: saline with Tween-80) was 100 % of control and 107 % of control; the T/C (dose: 6.25 mg/kg/injection, schedule: Q04DX002 (ip), vehicle: saline with Tween-80) is 107 % of control and 108 % of control; the T/C (dose: 12.5 mg/kg/injection, schedule: Q04DX002 (ip), vehicle: saline with Tween-80) is 115 % of control (2×) and 122 % of control; the T/C (dose: 25.0 mg/kg/injection, schedule: Q04DX002 (ip), vehicle: saline with Tween-80) was 120 % of control and 121 % of control and 123 % of control; the T/C (dose: 50.0 mg/kg/injection, schedule: Q04DX002 (ip), vehicle: saline with Tween-80) was 115 % of control and 121 % of control and 124 % of control; the T/C (dose: 100.0 mg/kg/injection, schedule: Q04DX002 (ip), vehicle: saline with Tween-80) is 112 % of control and 122 % of control. Also, the T/C (dose: 200.0 mg/kg/injection, schedule: Q04DX002 (ip), vehicle: saline with Tween-80) was 122 % of control.

Turning to `Cc1ccc(/[N+]([O-])=N/N2C(=O)c3ccccc3C2=O)cc1`, the T/C was 101 % of control under setting [1], 106 % of control under setting [2] and 108 % of control under setting [3].

Regarding `CCc1cccc(CC)c1-n1nnc(C(=O)c2ccccc2)c1C(=O)OC`, the T/C reads like this: (dose: 60.0 mg/kg/injection, schedule: Q01DX005 (ip), vehicle: Klucel + Tween-80) 100 % of control; (dose: 120.0 mg/kg/injection, schedule: Q01DX005 (ip), vehicle: Klucel + Tween-80) 109 % of control; (dose: 240.0 mg/kg/injection, schedule: Q01DX005 (ip), vehicle: Klucel + Tween-80) 102 % of control.

As to `CNC1Cc2c[nH]c3cccc(c23)C12C=C(C)C(=O)O2` (stereo not drawn), the T/C runs as follows: (dose: 75.0 mg/kg/injection, schedule: Q01DX009 (ip), vehicle: saline with Tween-80) 120 % of control and 115 % of control; (dose: 150.0 mg/kg/injection, schedule: Q01DX009 (ip), vehicle: saline with Tween-80) 120 % of control and 115 % of control; (dose: 300.0 mg/kg/injection, schedule: Q01DX009 (ip), vehicle: saline with Tween-80) 120 % of control.

As to `O=C1NC(=O)C2=C1NCCN2`, the T/C under setting [4] was 107 % of control, the T/C under setting [5] is 104 % of control and the T/C under setting [6] was 99 % of control.

Consider `O=C1OC2(CCCCC2)Cc2oc3ccccc3c(=O)c21`, for which the T/C was 98 % of control under setting [1], 100 % of control under setting [2] and 90 % of control under setting [3].

For `CCC(=O)Cc1nc2nnc(N)n2nc1CC(=O)CC`, the T/C under setting [7] is 100 % of control, the T/C under setting [8] was 107 % of control and the T/C under setting [9] was 98 % of control.

`CCC12Nc3ccccc3C(CC)(C1=O)C(c1ccccc1)=C2c1ccccc1` (stereo not drawn): the T/C (dose: 50.0 mg/kg/injection, schedule: Q01DX009 (ip), vehicle: Klucel (hydroxypropylcellulose) (HPC)) was 115 % of control; the T/C (dose: 100.0 mg/kg/injection, schedule: Q01DX009 (ip), vehicle: Klucel (hydroxypropylcellulose) (HPC)) is 106 % of control; the T/C (dose: 200.0 mg/kg/injection, schedule: Q01DX009 (ip), vehicle: Klucel (hydroxypropylcellulose) (HPC)) is 115 % of control.

For the compound `COc1cc2cnc(-c3ccc(Cl)c(Cl)c3)c(O)c2cc1OC`, the T/C is, setting by setting: (dose: 50.0 mg/kg/injection, schedule: Q01DX009 (ip), vehicle: saline) 90 % of control; (dose: 100.0 mg/kg/injection, schedule: Q01DX009 (ip), vehicle: saline) 102 % of control; (dose: 200.0 mg/kg/injection, schedule: Q01DX009 (ip), vehicle: saline) 90 % of control.

For the compound `CO/C=C1\CC(=O)N(c2cccc([N+](=O)[O-])c2)C1=O`, the T/C (dose: 25.0 mg/kg/injection, schedule: Q04DX003 (ip), vehicle: saline) is 97 % of control; the T/C (dose: 50.0 mg/kg/injection, schedule: Q04DX003 (ip), vehicle: saline) is 96 % of control; the T/C under setting [4] was 94 % of control and 96 % of control; the T/C under setting [5] was 90 % of control; the T/C under setting [6] was 97 % of control.

For the compound `COc1cc(/C=C/C(=O)NCCc2ccc(OCc3ccccc3)c(OC)c2)ccc1OCc1ccccc1`, the T/C runs as follows: (dose: 100.0 mg/kg/injection, schedule: Q01DX001 (ip), vehicle: saline with Tween-80) 88 % of control; (dose: 200.0 mg/kg/injection, schedule: Q01DX001 (ip), vehicle: saline with Tween-80) 89 % of control; (dose: 400.0 mg/kg/injection, schedule: Q01DX001 (ip), vehicle: saline with Tween-80) 90 % of control.

For the compound `COC(=O)C(OC)C(O)C(OC)OC` (stereo not drawn), the T/C was 100 % of control under setting [10], 101 % of control under setting [11] and 104 % of control under setting [12].

With `CNC(=O)O[C@H]1CC[C@@]2(C)C(=CC[C@H]3[C@@H]4CC[C@H]([C@H](C)CCCC(C)C)[C@@]4(C)CC[C@@H]32)C1`, the T/C runs as follows: under setting [10], 100 % of control; under setting [11], 96 % of control; under setting [12], 100 % of control.

`O=C(O)c1ccnc2c1ccc1ccccc12`: the T/C by setting is: (dose: 100.0 mg/kg/injection, schedule: Q04DX002 (ip), vehicle: Klucel (hydroxypropylcellulose) (HPC)) 103 % of control; (dose: 200.0 mg/kg/injection, schedule: Q04DX002 (ip), vehicle: Klucel (hydroxypropylcellulose) (HPC)) 94 % of control.

`Cc1cc(C(N)=O)c[n+](C)c1`: the T/C is 100 % of control under setting [7], 105 % of control under setting [8] and 107 % of control under setting [9].

For the compound `CC(=O)Nc1ccc(/C=C2/C(=O)ON=C2C)cc1`, the T/C is 116 % of control under setting [13] and 116 % of control under setting [14].

`COc1ccc2nc(C)cc(N=[N+]=[N-])c2c1`: the T/C is, setting by setting: under setting [13], 100 % of control; under setting [14], 100 % of control; (dose: 240.0 mg/kg/injection, schedule: Q01DX005 (ip), vehicle: saline with Tween-80) 91 % of control.

Turning to `CNC(=O)OCc1onc(-c2ccccc2)c1COC(=O)NC`, the T/C runs as follows: (dose: 12.5 mg/kg/injection, schedule: Q01DX005 (ip), vehicle: distilled water + Tween-80) 98 % of control; (dose: 25.0 mg/kg/injection, schedule: Q01DX005 (ip), vehicle: distilled water + Tween-80) 100 % of control; (dose: 50.0 mg/kg/injection, schedule: Q01DX005 (ip), vehicle: distilled water + Tween-80) 98 % of control; (dose: 100.0 mg/kg/injection, schedule: Q01DX005 (ip), vehicle: distilled water + Tween-80) 100 % of control; (dose: 200.0 mg/kg/injection, schedule: Q01DX005 (ip), vehicle: distilled water + Tween-80) 98 % of control.

For the compound `C(=N\N1CN(/N=C/c2ccccc2)C(c2ccccc2)C1c1ccccc1)/c1ccccc1` (stereo not drawn), the T/C by setting is: (dose: 12.5 mg/kg/injection, schedule: Q01DX005 (ip), vehicle: Klucel (hydroxypropylcellulose) (HPC)) 89 % of control; under setting [1], 99 % of control; under setting [2], 99 % of control and 97 % of control; under setting [3], 99 % of control; (dose: 200.0 mg/kg/injection, schedule: Q01DX005 (ip), vehicle: Klucel (hydroxypropylcellulose) (HPC)) 108 % of control.

As to `O=C1CN(c2ccccc2)C(=O)CN1/N=C/c1ccc(O)c(O)c1`, the T/C under setting [10] was 93 % of control, the T/C under setting [11] was 100 % of control and the T/C under setting [12] was 101 % of control.

Consider `COc1ccc2c(c1)OC(C)(C)C(c1ccccc1)=C2c1ccc2c(c1)NC(=O)CO2`, for which the T/C runs as follows: under setting [10], 99 % of control; under setting [11], 90 % of control; under setting [12], 94 % of control.

In the case of `COc1cccc2c(NCCCCCCCCNc3c4ccccc4nc4c(OC)cccc34)c3ccccc3nc12`, the T/C (dose: 1.25 mg/kg/injection, schedule: Q01DX009 (ip), vehicle: lactic acid) is 169 % of control; the T/C (dose: 2.5 mg/kg/injection, schedule: Q01DX009 (ip), vehicle: lactic acid) was 189 % of control; the T/C (dose: 5.0 mg/kg/injection, schedule: Q01DX009 (ip), vehicle: other) is 154 % of control.

For the compound `CC1(C)OC2CCC3OC(=O)C(C)(Cl)C3C2O1` (stereo not drawn), the T/C (dose: 12.5 mg/kg/injection, schedule: Q01DX009 (ip), vehicle: other) was 116 % of control; the T/C (dose: 25.0 mg/kg/injection, schedule: Q01DX009 (ip), vehicle: other) is 107 % of control; the T/C (dose: 50.0 mg/kg/injection, schedule: Q01DX009 (ip), vehicle: other) is 99 % of control; the T/C (dose: 100.0 mg/kg/injection, schedule: Q01DX009 (ip), vehicle: other) is 116 % of control.
